Source: patent US20200199527A1, “METHODS OF MATURATION OF HUMAN SPERMATOGONIUM” (B.G. Negev Technologies & Applications Ltd., at Ben-Gurion …, priority 2017, published 2020)

What was measured:
[1] = system: cells isolated from seminiferous tubules of ICR immature (7-day-old) mice; experiment: Effect of hormones and retinoic acid on development of mouse spermatogenesis in vitro in methylcellulose culture system (qPCR of markers); type: cell-based; details: 10^−8 M, 10^−7 M or 10^−6 M added after two weeks of culture, examined after total four weeks, normal immature mice
Procedure: Cells were enzymatically isolated from seminiferous tubules of ICR mice (which were developed by the Institute of Cancer Research, also called CD-1) immature mice (7-day-old mice).
Briefly, cells were cultured (2×10^5 cells/well/500 μl) in MEM medium which contained sodium bicarbonate 7.5%, L-glutamine 200 mM, non-essential amino acids 1%, penicillin/streptomycin and gentamicin 10 mg/ml, and were incubated over 2 nights in 24 wells plate at 37° C., 5% CO2. The nonadherent cells were collected and cultured ([…] cells/well/500 μl) in methylcellulose (42%; R&D, Minneapolis, USA) [as a three-dimension (3D) culture system], which contained the StemPro-34 medium (Gibco, USA) enriched with: 10% KSR (knockout serum replacement, Gibco, USA) and the following growth factors: Glial cell-derived neurotrophic factor (GDNF; 10 ng/ml; Biolegend), Leukemia inhibitory factor (LIF; 10 ng/ml; Biolegend), epidermal growth factors (EGF; 20 ng/ml; Biolegend, CA, USA), bFGF (basic fibroblast growth factor) (10 ng/ml; Biolegend).
Cells were cultured for 4 weeks. Every 1-2 weeks (according to the growth and morphology of the cells) the present inventor added 50 μl/well of fresh concentrated (×10) enriched StemPro-34 medium to the cell cultures. […]

[2] = system: Isolated testicular cells (from azoospermic adult patients); experiment: Effect of TNFα on development of spermatogenic markers in vitro in methylcellulose culture system (MCS); type: cell-based, human; set-up: key to VASA (pre-meiotic marker) staining / PLZF (pre-meiotic marker) staining / SALL4 (pre-meiotic marker) staining / CREM (meiotic marker) staining / BOULE (meiotic marker) staining / ACROSIN (post-meiotic marker) staining: “+” indicates positive staining for the indicated marker; “−” indicates negative staining for the indicated marker
Excerpt: After an overnight in sperm wash media containing 30% human serum albumin at room temperature (RT), TESE specimen were re-searched for sperm and then collected into the same media and transferred to the present inventor' lab, while TEFNA specimens were transferred to Modified Human Tubal Fluid (HTF) media containing 15% serum protein substitutes and transferred to the present inventor' lab after two days at RT. For cell isolation, biopsies were cut into small pieces of ˜2 mm, and subjected to collagenase type V (2 mg/ml) (Sigma, St. Louis, Mo., USA), DNAse (8 μg/ml) (Sigma) and hyelorunidase (2 mg/ml) (Sigma) in a total volume of 4 ml for 20 minutes in a 32° C. water bath shaker. Cells were precipitated by centrifugation (300×g, 10 minutes) and suspended with 4 ml of Tryple Select (Gibco, Denmark) for 10 minutes in a shaking water bath at 32° C. Cell suspension was centrifuged (300×g, 10 minutes) and the precipitated cells were suspended in 200 μl Roswell Park Memorial Institute (RPMI) (Biological Industries, Beit Haemek, Israel) and counted. Cells were cultured (2×10^4 cells/well/500 μl) in Minimum Essential Medi (MEM) (Biological Industries) which contained sodium bicarbonate (Gibco, UK), 7.5%, L-glutamine (Biological industries) 200 mM, non-essential amino acids (Gibco, UK) 1%, penicillin/streptomycin (Biological Industries) and gentamicin (Biological Industries) (10 mg/ml), and incubated for 2 nights in 24 well plates at 37° C., 5% CO2. The nonadherent cells were collected and cultured (2×10^4 cells/well/500 μl) in methylcellulose (R&D, Minneapolis, USA) (42%) [as a three-dimension (3D) culture system], which contained 33% StemPro-34 medium (Gibco, USA) enriched with: StemPro supplement (2.6%) (Gibco), insulin (25 μg/ml) (Gibco), transferrin (100 μg/ml) (Gibco), putrescin (60 μg/ml) (Gibco), sodium selenite (30 nM) (Gibco), D-glucose (6 mg/ml) (Sigma), pyruvic acid (30 μg/ml) (Sigma), BSA (Millpore, Illkirch, France) (5 mg/ml), L-glutamine (2 mM) (Biological Industries), 2-mercaptoethanol (0.5 μM) (Gibco), MEM vitamin solution (10 μl/ml) (Gibco, UK), MEM non-essential amino acid solution (10 μl/ml) (Gibco, UK), ascorbic acid (100 μM) (Sigma, China), d-biotin (10 μg/ml) (Sigma), 1% KSR (Gibco, UK), 0.5% Pen/Strep (Biological Industries), human rEGF (20 ng/ml) (Biolegend, CA, USA), human rGDNF (10 ng/ml) (Biolegend), human rLIF (10 ng/ml) (Biolegend) and human r-bFGF (10 ng/ml) (Biolegend). Cells were cultured for 1-16 weeks. Every 1-2 weeks (according to the growth and morphology of the cells), we added 50 μl/well of fresh concentrated (×10) enriched StemPro-34 medium to the cell cultures.
Isolated cells were fixed in cold methanol for 20 minutes. The immunostaining process was similar to that mentioned above for testicular tissue immunostaining after the stage of antigen retrieval. Following the removal of the blocking buffer, the first antibodies were added: Polyclonal rabbit anti-mouse SALL4 (Abcam, Cambridge, UK; 1:400), Polyclonal rabbit anti-human VASA (Santa Cruz 1:100), Polyclonal rabbit anti-human CD9 (Santa Cruz; 1:10), Polyclonal goat anti-human OCT4 (Santa Cruz; 1:50), Polyclonal rabbit anti-human α-6-INTEGRIN (Santa Cruz; 1:100), Polyclonal rabbit anti-human GFR-α □(Santa Cruz; 1:50), monoclonal mouse anti-human PLZF (Santa Cruz; 1:100), Polyclonal rabbit anti-human c-KIT (Santa Cruz; 1:50), Polyclonal rabbit anti-human BOULE (Santa Cruz; 1:25), Polyclonal rabbit anti-mouse CREM-1 (Santa Cruz; 1:30), Polyclonal goat anti-human LDH (Santa Cruz; 1:50), Polyclonal goat anti-mouse PROTAMINE (Santa Cruz; 1:20), Polyclonal rabbit anti-human ACROSIN (Santa Cruz; 1:10), monoclonal mouse anti-human Ki67 (Dianova GmbH, Germany; 1:200), monoclonal rabbit anti-human Ki67 (Cell marque; 1:200). After overnight incubation at 4° C., the slides were washed and treated as mentioned above for testicular tissue immunostaining. […]

[3] = TNFα 20 pg/ml, after culture (14.5 Ws) in MCS, patient 1, immunofluorescence staining

Molecule	expression of the meiotic/post-meiotic marker ACROSIN [1]	differentiation of the pre-meiotic cells to meiotic cells that express CREM ([2]; TNFα 20 pg/ml, patient #1, compared to CT (did not induce CREM))	growth of premeiotic cells VASA and PLZF, meiotic cells (Boule) and postmeiotic cells (acrosin positive cells) ([2]; TNFα 20 pg/ml, patient #1, versus control (CT))	ACROSIN (post-meiotic marker) staining [2, 3]	BOULE (meiotic marker) staining [2, 3]	CREM (meiotic marker) staining [2, 3]	PLZF (pre-meiotic marker) staining [2, 3]	SALL4 (pre-meiotic marker) staining [2, 3]	VASA (pre-meiotic marker) staining [2, 3]	development of colonies in MCS ([2]; in the presence of TNFα)
C[C@]12CC[C@H]3[C@@H](CCC4=CC(=O)CC[C@@]43C)[C@@H]1CC[C@@H]2O [testosterone]	increased									
TNFα		induced the differentiation	maintained/induced growth	+	+	+	+	−	+	colonies were developed
